Legend:
[1] = target: T1, ERα (Homo sapiens, UniProt P03372); assay: Estrogen receptor-alpha (ERα) degradation assay in MCF-7 cells using western blot; type: cell-based; design: assessed for their activity in degrading ERα in MCF-7 cells via western blot; endogenous in cells; host or cells: MCF7 cells; details: ER-alpha degradation, MCF7 cells, 3 days of incubation
T1 sequence (P03372 1-595): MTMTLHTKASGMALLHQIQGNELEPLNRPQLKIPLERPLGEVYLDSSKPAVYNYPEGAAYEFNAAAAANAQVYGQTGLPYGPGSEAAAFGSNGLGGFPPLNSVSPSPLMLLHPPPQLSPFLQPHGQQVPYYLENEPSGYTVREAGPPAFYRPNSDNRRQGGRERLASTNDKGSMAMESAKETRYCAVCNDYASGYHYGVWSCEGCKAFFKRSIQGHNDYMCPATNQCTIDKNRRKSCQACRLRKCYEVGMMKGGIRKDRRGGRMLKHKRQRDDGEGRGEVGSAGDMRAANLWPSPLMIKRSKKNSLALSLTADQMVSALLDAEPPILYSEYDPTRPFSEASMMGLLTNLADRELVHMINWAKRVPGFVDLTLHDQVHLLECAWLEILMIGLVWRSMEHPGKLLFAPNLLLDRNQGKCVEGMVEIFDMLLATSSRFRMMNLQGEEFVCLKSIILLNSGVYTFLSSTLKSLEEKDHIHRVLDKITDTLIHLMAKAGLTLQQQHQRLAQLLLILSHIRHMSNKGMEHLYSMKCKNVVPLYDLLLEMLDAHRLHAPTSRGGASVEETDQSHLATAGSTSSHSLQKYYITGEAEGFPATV
Procedure: Compounds prepared in this application were also analyzed for the degradation of ERα in MCF7 and T47D cells.
Estrogen Receptor-Alpha (ERα) Degradation Assay in MCF-7 Cells Using Western Blot Method for Table 4.
The exemplary novel ERα degraders were assessed for their activity in degrading ERα in MCF-7 cells via western blot. The assay was carried out in the presence of 10% fetal bovine serum (FBS) or high percentage of human or mouse serum.
MCF7 cells were grown in DMEM/F12 with 10% fetal bovine serum and seeded at 24,000 cells per well in 100 μl into 96-well clear tissue culture plates. The following day, the cells were treated with PROTACs in a […] concentration curve with 100 nM being the top concentration and serial dilutions to make the other concentrations (30 nM, 10 nM, 3 nM, 1 nM, and 0.3 nM). At all concentrations, 0.01% DMSO is the final concentration in the well. The following day, the plates are aspirated, washed with 50 μl of cold PBS. The cells are lysed with 50 μl/well 4° C. Cell Lysis Buffer (Catalog #9803; Cell Signaling Technology, Danvers, Mass.) (20 mM Tris-HCL (pH 7.5), 150 mM NaCl, 1 mM […], 1 mM EGTA, 1% Triton, 2.5 mM sodium pyrophosphate, 1 mM B-glycerophosphate, 1 mM sodium vanadate, 1 ug/ml leupeptin). Lysates were clarified at 16,000×g for 10 minutes, and 2 μg of protein was subjected to SDS-PAGE analysis and followed by immunoblotting according to standard protocols. The antibodies used were ERα (Cell Signaling Technologies Catalog #8644), and Tubulin (Sigma Catalog #T9026; St. Louis, Mo.). Detection reagents were Clarity Western ECL substrate (Bio-Rad Catalog #170-5060; Hercules, Calif.).
Alternatively, MCF7 cells were grown in DMEM/F12 with 10% fetal bovine serum and seeded at 24,000 cells per well in 500 μl in 24-well clear tissue culture plates. The following day, the cells were treated with PROTACs in a 5-point concentration curve (100 nM, 33 nM, 11 nM, 3.7 nM, and 1.2 nM) in the presence of 0.01% DMSO. After 72 hours, the wells are aspirated and washed with 500 μl of PBS. The cells are lysed with 100 μl/well 4° C. Cell Lysis Buffer (Catalog #9803; Cell Signaling Technology, Danvers, M A) (20 mM Tris-HCL (pH 7.5), 150 mM NaCl, 1 mM Na2EDTA, 1 mM EGTA, 1% Triton, 2.5 mM sodium pyrophosphate, 1 mM B-glycerophosphate, 1 mM sodium vanadate, 1 ug/ml leupeptin). Lysates were clarified at 16,000×g for 10 minutes, and 2 μg of protein was subjected to SDS-PAGE analysis and followed by immunoblotting according to standard protocols. The antibodies used were ER(X (Cell Signaling Technologies Catalog #8644), and Tubulin (Sigma Catalog #T9026; St. Louis, Mo.). Detection reagents were Clarity Western ECL substrate (Bio-Rad Catalog #170-5060; Hercules, Calif.).

[2] = target: T1, ERα; assay: ERE luciferase reporter gene assay in T47D-KBluc cells (target engagement); type: cell-based; design: T47D human breast cancer cells stably transfected with estrogen responsive element/promoter/luciferase reporter gene; host or cells: T47D-KBluc cells; details: 10% FBS, 24 hours, Table 2 VHL centric PROTACs, read-out: IC50
Method in brief: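 T47D-KBluc breast cancer cells, which carry a stable ERE-luciferase reporter, were grown in RPMI with 10% FBS (about 10 pM estrogen) and exposed to PROTACs for 24 h. The 12-point, 3-fold series ran from 300 nM to 2 pM. Luciferase was read after lysis, and IC50 was fitted from duplicates.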

DC50 [1]	Dmax [1]	IC50 [2]	SMILES
< 1 nM	> 75%	0.4 nM	Cc1ncsc1-c1ccc(CNC(=O)[C@@H]2C[C@@H](O)CN2C(=O)[C@@H](NC(=O)COCCN2CCN(CCOc3ccc(Oc4c(-c5ccc(Cl)cc5)sc5cc(O)ccc45)cc3)CC2)C(C)(C)C)cc1 [Compound 151, (2S,4R)-1-[(2S)-2-[2-(2-[4-[2-(4-[[2-(4-chlorophenyl)-6-hydroxy-1-benzothiophen-3-yl]oxy]phenoxy)ethyl]piperazin-1-yl]ethoxy)acetamido]-3,3-dimethylbutanoyl]-4-hydroxy-N-[[4-(4-methyl-1,3-thiazol-5-yl)phenyl]methyl]pyrrolidine-2-carboxamide]
10 to 100 nM	> 75%	13.7 nM	Cc1ncsc1-c1ccc(CNC(=O)[C@@H]2C[C@@H](O)CN2C(=O)[C@@H](NC(=O)CN2CCN(CCOCCOc3ccc(Oc4c(-c5ccc(Br)cc5)sc5cc(O)ccc45)cc3)CC2)C(C)(C)C)cc1 [Compound 158, (2S,4R)-1-[(2S)-2-[2-(4-[2-[2-(4-[[2-(4-bromophenyl)-6-hydroxy-1-benzothiophen-3-yl]oxy]phenoxy)ethoxy]ethyl]piperazin-1-yl)acetamido]-3,3-dimethylbutanoyl]-4-hydroxy-N-[[4-(4-methyl-1,3-thiazol-5-yl)phenyl]methyl]pyrrolidine-2-carboxamide]

More lines, now with the values behind:

SMILES	DC50 [1]	Dmax [1]	IC50 [2]
C[C@H](NC(=O)[C@@H]1C[C@@H](O)CN1C(=O)[C@@H](NC(=O)Cc1ccc(-c2ccn(CCOc3ccc(Oc4c(-c5ccc(F)cc5)sc5cc(O)ccc45)cc3)n2)cc1)C(C)(C)C)c1ccc(Cl)cc1 [Compound 150, (2S,4R)-N-[(1S)-1-(4-chlorophenyl)ethyl]-1-[(2S)-2-[2-(4-[1-[2-[4-[[2(4-fluorophenyl)-6-hydroxy-1-benzothiophen-3-yl]oxy]phenoxy)ethyl]-1H-pyrazol-3-yl]phenyl)acetamido]-3,3-dimethylbutanoyl]-4-hydroxypyrrolidine-2-carboxamide]	10 to 100 nM	> 75%	17 nM
Cc1ncsc1-c1ccc([C@H](C)NC(=O)[C@@H]2C[C@@H](O)CN2C(=O)[C@@H](NC(=O)COCCN2CCN(CCOc3ccc(Oc4c(-c5ccc(Br)cc5)sc5cc(O)ccc45)cc3)CC2)C(C)(C)C)cc1 [Compound 153, (2S,4R)-1-[(2S)-2-[2-(2-[4-[2-(4-[[2-(4-bromophenyl)-6-hydroxy-1-benzothiophen-3-yl]oxy]phenoxy)ethyl]piperazin-1-yl]ethoxy)acetamido]-3,3-dimethylbutanoyl]-4-hydroxy-N-[(1S)-1-[4-(4-methyl-1,3-thiazol-5-yl)phenyl]ethyl]pyrrolidine-2-carboxamide]	1 to 10 nM	> 75%	3.2 nM
Cc1ncsc1-c1ccc(CNC(=O)[C@@H]2C[C@@H](O)CN2C(=O)[C@@H](NC(=O)CN2CCC(N3CC(OCCOc4ccc(Oc5c(-c6ccc(Br)cc6)sc6cc(O)ccc56)cc4)C3)CC2)C(C)(C)C)cc1 [Compound 160, (2S,4R)-1-[(2S)-2-[2-(4-[3-[2-(4-[[2-(4-bromophenyl)-6-hydroxy-1-benzothiophen-3-yl]oxy]phenoxy)ethoxy]azetidin-1-yl]piperidin-1-yl)acetamido]-3,3-dimethylbutanoyl]-4-hydroxy-N-[[4-(4-methyl-1,3-thiazol-5-yl)phenyl]methyl]pyrrolidine-2-carboxamide]	1 to 10 nM	> 75%	6.3 nM

Source: patent publication US11384063B2, “Modulators of estrogen receptor proteolysis and associated methods of use” (Arvinas Operations, Inc., priority 2017, dated 2022)
